According to patent US8569264B2, “Antibacterial 4,5-substituted aminoglycoside analogs having multiple substituents” (ISIS Pharmaceuticals, Inc., priority 2005, dated 2013):
Values after ≈ are worked out from the molar mass of the structure shown. Where two headings read alike, the source gives them in different places. Marks after values point to notes of the source that are not given here.

Experiments:
[1] = system: P. aurginosa ATCC 25416; experiment: MIC, P. aurginosa ATCC 25416; type: cell-based
Experimental: (§1) The MIC assays are carried out in 150 μL volume in duplicate in 96-well clear flat-bottom plates. The bacterial suspension from an overnight culture growth in appropriate medium is added to a solution of test compound in 4% DMSO in water. Final bacterial inoculum is approximately 10^5-10^6 CFU/well. […] Both ampicillin and tetracycline are used as antibiotic-positive controls in each screening assay for S. pyogenes, E. coli imp-, E. coli, S. aureus, E. faecalis, K. pneumoniae and P. vulgaris. Ciprofloxacin is used as an antibiotic positive control in each screening assay for P. aeruginosa.
(§2) The following compounds were prepared using methods illustrated in the previous examples. The compounds were also examined in standard bacterial assays against E. Coli, S. Aureus, P. aurginosa, K. pneumoniae, P. vulgaris, and A. baumannii to determine activities. Each of the bacterial cultures that are available from ATCC (www.atcc.org) is identified by its ATCC number. A. baumannii is gentamicin sensitive Acinetobacter baumannii #2 from Walter Reed.

[2] = system: E. coli ATCC 25922; experiment: MIC, E. coli ATCC 25922; type: cell-based; settings: for MIC: Escherichia coli
Experimental: as §1, §2

[3] = system: gentamicin sensitive Acinetobacter baumannii #2 from Walter Reed; experiment: MIC, A. baumannii WReed 2; type: cell-based; settings: for MIC: Acinetobacter baumannii
Experimental: as §1, §2

[4] = system: S. aureus ATCC 13709; experiment: MIC, S. aureus ATCC 13709; type: cell-based; settings: for MIC: Staphylococcus aureus
Experimental: as §1, §2

[5] = system: P. vulgaris ATCC 8427; experiment: MIC, P. vulgaris ATCC 8427; type: cell-based; settings: for MIC: Proteus vulgaris
Experimental: as §1, §2

[6] = system: P. aurginosa ATCC 29248; experiment: MIC, P. aurginosa ATCC 29248; type: cell-based
Experimental: as §1, §2

[7] = system: K. pneumoniae ATCC 10031; experiment: MIC, K. pneumoniae ATCC 10031; type: cell-based; settings: for MIC: Klebsiella pneumoniae
Experimental: as §1, §2

[8] = system: Staphylococcus aureus (Smith Strain ATCC 13709); experiment: Staphylococcus aureus mouse protection assay; type: in vivo, mice; settings: for # Dead mice/Total mice in group: Staph Conc. 10^6, 10% Mucin
Experimental: Two of the novel aminoglycoside compounds of the invention were examined for their anitbacterial activity against staphylococcus aureus. Mice were fed with autoclaved commercial food pellets and sterile water ad libitum. Animals were inoculated intraperitoneally with 0.5 mL/mouse of the indicated concentration of S. aureus (ATCC 13709) containing 10% mucin. There were 10 mice in each treatment group and compounds were administered subcutaneously one and 3 hour after infection. Compounds 15a (R4═R5═CH3) and 15j (R4═H, R5═(CH2)2C6H5)) were used at 75 mg/kg, 37.5 mg/kg, 18.8 mg/kg, 9.4 mg/kg, 4.7 mg/kg, 2.3 mg/kg, 1.17 mg/kg and 0.5 mg/kg. Amakacin, paromomycin and neomycin were used as the positive controls at concentrations of 2 mg/kg, 1 mg/kg and 0.5 mg/kg.
Test compound was administered as an aqueous buffer solution (phosphate buffered saline (PBS), pH=7.4).

[9] = system: E. coli S30 bacterial extract (pBestLuc firefly luciferase reporter); experiment: Coupled bacterial transcription/translation assay; type: biochemical; settings: read-out: Trans/Trans IC50
Experimental: The DNA template, pBestLuc™ (Promega), is a plasmid containing a reporter gene for firefly luciferase fused to a strong tac promoter and ribosome binding site. Messenger RNA from 1 μg pBestLuc is transcribed and translated in E. coli S30 bacterial extract in the presence or absence of test compound. Compounds are tested in a black 96 well microtiter plate with an assay volume of 35 μL. […] The transcription/translation reaction is incubated for 35 minutes at 37° C. followed by detection of functional luciferase with the addition of 30 μL LucLite™ (Packard). Light output is quantitated on a Packard TopCount.

[10] = biological target: 18S ribosomal subunit RNA target; experiment: Mass spectrometry based binding assay (FTICR), 18S
Experimental: (§3) In a typical experiment, 10 μL of an aqueous solution containing 100 mM ammonium acetate buffer, 2.5 or 5 μM of each RNA, and 33% isopropyl alcohol (to aid ion desolvation) was prepared with different concentrations of each ligand or ligand mixture Samples were introduced into the electrospray ionization source (negative ionization mode) at 1 μL/min and ions were stored for 1 sec in an RF-only hexapole following desolvation. The abundances were integrated from the respective ions for free RNA and the ligand-RNA complex. The primary (1:1 RNA:ligand) and secondary (1:2 complex, if observed). […] The peak ratios were measured at each concentration, then a plot of complex/free RNA versus concentration of ligand added was fitted to a second (or higher) order binding polynomial to determine the KD.

[11] = system: E. Coli; experiment: MIC, E. Coli; type: cell-based
Procedure, shortened: (§4)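 Broth microdilution in duplicate, 150 μL: overnight-culture bacteria were added to compound in 4% DMSO in water. Final inoculum was about 10^5–10^6 CFU/well.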

[12] = system: S. Aureus; experiment: MIC, S. Aureus; type: cell-based
Procedure, shortened: as §4

[13] = biological target: 16S ribosomal subunit RNA target; experiment: Mass spectrometry based binding assay (FTICR), 16S
Experimental: as §3, with “[…],” for “2.5 or 5 μM of each RNA,”

NCC1OC(OC2C(CO)OC(OC3C(O)C(N)CC(N)C3OC3OC(CO)C(O)C(O)C3N)C2OCCNCCN2C(=O)c3cccc4cccc(c34)C2=O)C(N)C(O)C1O (centres unmarked) [Compound 9ae]
MIC P. aurginosa ATCC 25416 ([1]; Example 110): 5 to 10 µM
MIC E. coli ATCC 25922 ([2]; Example 110): >40 µM
MIC A. baumannii WReed 2 ([3]; Example 110): 20 to 40 µM
MIC S. aureus ATCC 13709 ([4]; Example 110): 10 to 20 µM
MIC P. vulgaris ATCC 8427 ([5]; Example 110): 20 to 40 µM
MIC P. aurginosa ATCC 29248 ([6]; Example 110): >40 µM
MIC K. pneumoniae ATCC 10031 ([7]; Example 110): 5 to 10 µM

NCC1OC(OC2C(CO)OC(OC3C(O)C(N)CC(N)C3OC3OC(CO)C(O)C(O)C3N)C2OCCN(CCCc2ccccc2)CCc2ccccc2)C(N)C(O)C1O (centres unmarked) [Compound 9ag]
MIC P. aurginosa ATCC 25416 ([1]; Example 110): 10 to 20 µM
MIC E. coli ATCC 25922 ([2]; Example 110): 10 to 20 µM
MIC A. baumannii WReed 2 ([3]; Example 110): 10 to 20 µM
MIC S. aureus ATCC 13709 ([4]; Example 110): 0.6 to 1.2 µM
MIC P. vulgaris ATCC 8427 ([5]; Example 110): 10 to 20 µM
MIC P. aurginosa ATCC 29248 ([6]; Example 110): >40 µM
MIC K. pneumoniae ATCC 10031 ([7]; Example 110): 2.5 to 5 µM

COc1ccc(CCNCCOC2C(OC3C(O)C(N)CC(N)C3OC3OC(CO)C(O)C(O)C3N)OC(CO)C2OC2OC(CN)C(O)C(O)C2N)cc1 (centres unmarked) [Compound 9aj]
MIC P. aurginosa ATCC 25416 ([1]; Example 110): >40 µM
MIC E. coli ATCC 25922 ([2]; Example 110): 5 to 10 µM
MIC A. baumannii WReed 2 ([3]; Example 110): 2.5-5^ uM
MIC S. aureus ATCC 13709 ([4]; Example 110): <0.6 µM
MIC P. vulgaris ATCC 8427 ([5]; Example 110): 5 to 10 µM
MIC P. aurginosa ATCC 29248 ([6]; Example 110): >40 µM
MIC K. pneumoniae ATCC 10031 ([7]; Example 110): 1.3 to 2.5 µM

NCC1OC(OC2C(CO)OC(OC3C(O)C(N)CC(N)C3OC3OC(CO)C(O)C(O)C3N)C2OCCNCc2cccnc2)C(N)C(O)C1O (centres unmarked) [Compound 9b]
# Dead mice/Total mice in group ([8]; 0.1 mg/kg in PBS pH=7.4, the 14th table): 7/10 (10% Mucin)
# Dead mice/Total mice in group ([8]; 0.5 mg/kg in PBS pH=7.4, the 14th table): 3/10 (10% Mucin)
# Dead mice/Total mice in group ([8]; 1 mg/kg in PBS pH=7.4, the 14th table): 0/10 (10% Mucin)
# Dead mice/Total mice in group ([8]; 2 mg/kg in PBS pH=7.4, the 14th table): 0/10 (10% Mucin)
# Dead mice/Total mice in group ([8]; 4.5 mg/kg in PBS pH=7.4, the 14th table): 0/10 (10% Mucin)
# Dead mice/Total mice in group ([8]; 9 mg/kg in PBS pH=7.4, the 14th table): 0/10 (10% Mucin)
# Dead mice/Total mice in group ([8]; 18 mg/kg in PBS pH=7.4, the 14th table): 0/10 (10% Mucin)
# Dead mice/Total mice in group ([8]; 37 mg/kg in PBS pH=7.4, the 14th table): 0/10 (10% Mucin)
# Dead mice/Total mice in group ([8]; 75 mg/kg in PBS pH=7.4, the 14th table): 0/10 (10% Mucin)
# Dead mice/Total mice in group ([8]; […] in PBS pH=7.4, the 14th table): 6/10 (10% Mucin)
prevention of lethal bacterial infections in mice ([8]; result in words, summary of the 14th table): effective at preventing lethal bacterial infections in mice
IC50 ([9]; Example 105): 100 nM
Kd ([10]; FTICR mass spectrometry, Example 105): 9400 nM
MIC E. Coli. ([11]; Example 105): 6-12^b uM
MIC S. Aureus ([12]; Example 105): 0.6-1^ uM
Kd ([13]; FTICR mass spectrometry, run at 100 nM RNA, Example 105): 900 nM

CN(C)CC1OC(OC2C(N)CC(N)C(O)C2OC2OC(CO)C(OC3OC(CN)C(O)C(O)C3N)C2O)C(N)C(O)C1O (centres unmarked) [Compound 15a]
# Dead mice/Total mice in group ([8]; 0.5 mg/kg subcutaneously, the 13th table): 8/10
# Dead mice/Total mice in group ([8]; 1 mg/kg subcutaneously, the 13th table): 7/10
# Dead mice/Total mice in group ([8]; 2 mg/kg subcutaneously, the 13th table): 7/10
# Dead mice/Total mice in group ([8]; 4.5 mg/kg subcutaneously, the 13th table): 1/10
# Dead mice/Total mice in group ([8]; 9 mg/kg subcutaneously, the 13th table): 0/10
# Dead mice/Total mice in group ([8]; 18 mg/kg subcutaneously, the 13th table): 0/10
# Dead mice/Total mice in group ([8]; 37 mg/kg subcutaneously, the 13th table): 0/10
# Dead mice/Total mice in group ([8]; 75 mg/kg subcutaneously one and 3 hour after infection, intraperitoneal, the 13th table): 0/10
IC50 ([9]; Example 108): 300 nM
Kd ([10]; Example 108): 700 nM
MIC E. Coli. ([11]; Example 108): 3 to 6 µM
MIC S. Aureus ([12]; Example 108): 2 to 3 µM
Kd ([13]; Example 108): 600 nM

NCC1OC(OC2C(CO)OC(OC3C(O)C(N)CC(N)C3OC3OC(CNCCc4cccc(C(F)(F)F)c4)C(O)C(O)C3N)C2O)C(N)C(O)C1O (centres unmarked) [Compound 15u]
MIC P. aurginosa ATCC 25416 ([1]; Example 111): >40 µM
MIC E. coli ATCC 25922 ([2]; Example 111): 1.3 to 2.5 µM
MIC A. baumannii WReed 2 ([3]; Example 111): 10 to 20 µM
MIC S. aureus ATCC 13709 ([4]; Example 111): 0.3 to 0.6 µM
MIC P. vulgaris ATCC 8427 ([5]; Example 111): >40 µM
MIC P. aurginosa ATCC 29248 ([6]; Example 111): >40 µM
MIC K. pneumoniae ATCC 10031 ([7]; Example 111): 0.6 to 1.3 µM

NCC[C@H](O)C(=O)N[C@@H]1C[C@H](N)[C@@H](O[C@H]2O[C@H](CO)[C@@H](O)[C@H](O)[C@H]2N)[C@H](O[C@@H]2O[C@H](CO)[C@@H](O[C@H]3O[C@@H](CN)[C@@H](O)[C@H](O)[C@H]3N)[C@H]2OCCNCCc2ccccc2)[C@H]1O [Compound 46a, N-1-haba-2″-O-phenylethylaminoethyl paromomycin]
MIC ([1]; Example 110): 0.6 to 1.3 µM (≈ 0.518 to 1.12 µg/mL)
MIC ([1]; Example 111): 10 to 20 µM (≈ 8.64 to 17.3 µg/mL)
MIC ([2]; ATCC25922, Example 110): 0.6 to 1.3 µM (≈ 0.518 to 1.12 µg/mL)
MIC ([2]; ATCC25922, Example 111): 1.3 to 2.5 µM (≈ 1.12 to 2.16 µg/mL)
MIC ([3]; Example 110): 0.6 to 1.3 µM (≈ 0.518 to 1.12 µg/mL)
MIC ([3]; Example 111): 10 to 20 µM (≈ 8.64 to 17.3 µg/mL)
MIC ([4]; ATCC13709, Example 110): 0.6 to 1.2 µM (≈ 0.518 to 1.04 µg/mL)
MIC ([4]; ATCC13709, Example 111): 0.2 to 0.3 µM (≈ 0.173 to 0.259 µg/mL)
MIC ([5]; ATCC8427, Example 110): 0.6 to 1.3 µM (≈ 0.518 to 1.12 µg/mL)
MIC ([5]; ATCC8427, Example 111): 5 to 10 µM (≈ 4.32 to 8.64 µg/mL)
MIC ([6]; Example 110): 1.3 to 2.5 µM (≈ 1.12 to 2.16 µg/mL)
MIC ([6]; Example 111): 5 to 10 µM (≈ 4.32 to 8.64 µg/mL)
MIC ([7]; ATCC10031, Example 110): < 0.6 µM
MIC ([7]; ATCC10031, Example 111): 0.3 to 0.6 µM (≈ 0.259 to 0.518 µg/mL)
